Among the test systems are MDA-N; MDA-MB-231 breast; UACC-257 melanoma; MDA-MB-435; SK-MEL-2 melanoma; COLO 205 colon; LOX IMVI melanoma; TK-10 renal; IGROV1 ovarian; RXF 393 renal.
Assay in all cases: NCI tumour cell line growth inhibition, 48 h

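96-well plates; 48 h exposure; 5 concentrations. Endpoints by linear interpolation between flanking doses. Not reached: highest tested concentration assigned. At the GI50, growth is halved. TGI marks complete inhibition of growth.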

Turning to `NCCCN1CCN(CCCNc2ccc3ncn4c5ccccc5c(=O)c2c34)CC1`, the TGI was 4.88 µM in the experiment on MDA-N; 3.71 µM in the experiment on MDA-MB-231 breast; 19.1 µM with UACC-257 melanoma; greater than 25 µM in the experiment on MDA-MB-435; 13.3 µM with SK-MEL-2 melanoma; 2.66 µM in the experiment with COLO 205 colon. Also, the TGI was 4.07 µM in the experiment on LOX IMVI melanoma, greater than 25 µM in the experiment with TK-10 renal and 8.17 µM in the experiment with IGROV1 ovarian.

Take `c1csc(-c2csc(-c3cccs3)c2)c1`: the TGI is greater than 100 µM with MDA-MB-231 breast; greater than 100 µM in the experiment on UACC-257 melanoma; greater than 100 µM with MDA-MB-435; 41.1 µM with SK-MEL-2 melanoma; 32.8 µM in the experiment with COLO 205 colon; greater than 100 µM in the experiment with LOX IMVI melanoma. Also, the TGI was 74 µM in the experiment with RXF 393 renal, greater than 100 µM in the experiment with TK-10 renal and greater than 100 µM with IGROV1 ovarian.

Consider `CC[N+]1(C)CCC(O)(/C=C/c2ccc(Cl)c(Cl)c2)C(C(=O)/C=C/c2ccc(Cl)c(Cl)c2)C1` (stereo unspecified), for which the TGI with UACC-257 melanoma worked out at 5.96 µM; in the experiment with MDA-MB-435 it was 5.01 µM; in the experiment with SK-MEL-2 melanoma, 11.4 µM; in the experiment on COLO 205 colon, 10.2 µM; with LOX IMVI melanoma, 2.84 µM; in the experiment on RXF 393 renal, 4.02 µM. Also, the figures for the TGI with TK-10 renal and in the experiment with IGROV1 ovarian were 6.58 µM and 7.8 µM, respectively.

In the case of `Cn1cnc([N+](=O)[O-])c1Sc1nncc2[nH]cnc12`, the TGI in the experiment with MDA-N, with MDA-MB-231 breast, in the experiment on UACC-257 melanoma, with MDA-MB-435, in the experiment with SK-MEL-2 melanoma and with COLO 205 colon was greater than 100 µM in each case. In addition, the TGI with LOX IMVI melanoma, in the experiment with TK-10 renal and with IGROV1 ovarian was greater than 100 µM each time.

Consider `Cc1cccc(/C=N/NC(=S)NC(C)(C)C)n1`, for which the TGI in the experiment with MDA-N, in the experiment with MDA-MB-231 breast, in the experiment with UACC-257 melanoma, in the experiment with MDA-MB-435, with SK-MEL-2 melanoma and in the experiment with COLO 205 colon was greater than 100 µM each time. The TGI in the experiment with LOX IMVI melanoma, in the experiment with TK-10 renal and in the experiment on IGROV1 ovarian was greater than 100 µM each time.

As to `COc1ccc(C2=C(N)c3ccccc3C2=O)cc1`, the TGI in the experiment on MDA-N, in the experiment on MDA-MB-231 breast, in the experiment on UACC-257 melanoma, in the experiment with MDA-MB-435, in the experiment with SK-MEL-2 melanoma and with COLO 205 colon was greater than 100 µM each time. The TGI in the experiment with LOX IMVI melanoma, in the experiment with TK-10 renal and in the experiment on IGROV1 ovarian was greater than 100 µM throughout.

`Cc1cc(=O)[nH]c(S(=O)(=O)NC(=S)Nc2ccc(Br)cc2)n1`: the TGI in the experiment on MDA-MB-231 breast, in the experiment with UACC-257 melanoma, in the experiment with MDA-MB-435, in the experiment on SK-MEL-2 melanoma, in the experiment with COLO 205 colon and with RXF 393 renal was greater than 100 µM in each case. In addition, the TGI in the experiment with TK-10 renal and with IGROV1 ovarian was greater than 100 µM in each case.

With `COc1cccc2c1C(=O)c1c(O)c3c(c(O)c1C2=O)C[C@](O)(C(=O)CO)CC3OC1CC(N)C(OC2CCCCO2)C(C)O1` (stereo partly specified), the TGI turned out to be 2.5 µM with UACC-257 melanoma; 2.43 µM with SK-MEL-2 melanoma; 2.61 µM in the experiment with COLO 205 colon; 1.66 µM with LOX IMVI melanoma; 1.87 µM with RXF 393 renal; 11.4 µM in the experiment on IGROV1 ovarian.

With `CC(C)(C)OC(=O)N[C@@H](Cc1ccccc1)C(=O)N1CC[C@@H](C(=O)N2[C@H]3CC4CC[C@@]3(CS2(=O)=O)C4(C)C)N1`, the TGI with MDA-N, in the experiment on MDA-MB-231 breast, with UACC-257 melanoma, in the experiment on MDA-MB-435, with SK-MEL-2 melanoma and with COLO 205 colon was greater than 100 µM throughout. The TGI with LOX IMVI melanoma and in the experiment on RXF 393 renal was greater than 100 µM throughout.

Turning to `COc1ccc(/C(Cl)=C(\C=O)c2ccc(Cl)cc2)cc1`, the TGI in the experiment on UACC-257 melanoma was 77.4 µM; in the experiment on SK-MEL-2 melanoma, 54.6 µM; in the experiment with LOX IMVI melanoma, 23.8 µM; in the experiment on RXF 393 renal, 57.3 µM; in the experiment with TK-10 renal it was greater than 100 µM; with IGROV1 ovarian, 42.1 µM.

With `COc1cc(/C=C/C=C2\CC(C)C/C(=C\C=C\c3ccc(O)c(OC)c3)C2=O)ccc1O` (stereo unspecified), the TGI with MDA-MB-231 breast was 32.4 µM; in the experiment on UACC-257 melanoma, 89.7 µM; in the experiment on MDA-MB-435, 41 µM; with SK-MEL-2 melanoma, greater than 100 µM; with COLO 205 colon, greater than 100 µM; with LOX IMVI melanoma, 65.1 µM. Further, the TGI with TK-10 renal came to 16 µM; with IGROV1 ovarian, 20.8 µM.

On to `Brc1ccc2[nH]cc(-c3nc(-c4c[nH]c5ccncc45)cs3)c2c1`, for which the GI50 is 1.52 µM in the experiment on MDA-MB-231 breast; 1.92 µM in the experiment with UACC-257 melanoma; 1.66 µM with MDA-MB-435; 1.92 µM in the experiment with SK-MEL-2 melanoma; 1.49 µM in the experiment with RXF 393 renal; 2.33 µM in the experiment with TK-10 renal. For the same molecule, the TGI in the experiment with MDA-MB-231 breast was 2.95 µM; with UACC-257 melanoma, 3.46 µM; with MDA-MB-435 it was 3.06 µM; with SK-MEL-2 melanoma it was 3.72 µM; in the experiment on RXF 393 renal, 2.87 µM; with TK-10 renal, 3.9 µM.

As to `O=C1/C(=C/c2ccc(Cl)c(Cl)c2)CN(C(=O)CCN2CCOCC2)C/C1=C\c1ccc(Cl)c(Cl)c1`, the TGI with MDA-N was 0.0441 µM; in the experiment on MDA-MB-231 breast, 0.00591 µM; with MDA-MB-435, 0.0309 µM; with LOX IMVI melanoma, 1.15 µM.

Take `O=[N+]([O-])c1ccc(-c2nc3ccccc3o2)cc1`: the TGI with MDA-N, in the experiment with UACC-257 melanoma, in the experiment with MDA-MB-435, in the experiment with SK-MEL-2 melanoma, with COLO 205 colon and in the experiment on LOX IMVI melanoma was greater than 100 µM each time. Moreover, the TGI with RXF 393 renal, with TK-10 renal and in the experiment with IGROV1 ovarian was greater than 100 µM throughout.

On to `CCC[CH2][Ge]([CH2]CCC)([CH2]CCC)[O]C(=O)CCl`, for which the GI50 in the experiment on SK-MEL-2 melanoma is 3.59 µM; with COLO 205 colon it was 10.4 µM; with LOX IMVI melanoma, 1.16 µM; in the experiment on RXF 393 renal it was 0.612 µM; with TK-10 renal, 3.4 µM; in the experiment with IGROV1 ovarian, 3.27 µM. Further, the TGI stood at 19.7 µM with SK-MEL-2 melanoma; 24 µM in the experiment on COLO 205 colon; 3.52 µM with LOX IMVI melanoma; 3.56 µM in the experiment with RXF 393 renal; 17.7 µM in the experiment with TK-10 renal; 18.4 µM in the experiment with IGROV1 ovarian.

The values above are taken from PubChem BioAssay (NCI).
